{"source": "patent US4794110A", "about": "“5-Aryl-11-substituted-5H,11H-pyrrolo[2,1-c][1,4]benzoxazepined as analgesic and hypotensive agents” (Hoechst-Roussel Pharmaceuticals, Inc., priority 1987, dated 1988)", "key": {"[1]": {"system": "2-phenyl-1,4-benzoquinone-induced writhing", "test": "2-phenyl-1,4-benzoquinone-induced writhing test in mice (analgesic activity, phenylquinone writhing)", "format": "in vivo", "excerpt": "The compounds of formula I of the present invention are useful as analgesic agents due to their ability to alleviate pain in mammals. […] Exptl. Biol. Med., 95, 729 (1957)]."}, "[2]": {"system": "spontaneous hypertensive rat", "test": "Antihypertensive activity in the spontaneous hypertensive rat by the indirect tail cuff method", "format": "in vivo", "settings": "mean arterial blood pressure, third day", "procedure": "In this procedure a group of five animals are treated orally for three days with the test compound in relation to a control group of the same number. The drop in blood pressure is measured on the third day following administration."}}, "note": "Values joined by “and” are separate entries in the source; they are usually repeats but may differ in a detail not shown here. Identical values can stand only once.", "data": [{"smiles": "CN(C)CC1Oc2ccccc2C(c2ccccc2)n2cccc21.Cl", "note": "(single isomer, unassigned) [11-dimethylaminomethyl-5-phenyl-5H,11H--pyrrolo[2,1-c][1,4]b] [11-Dimethylaminomethyl-5-phenyl-5H,11H-pyrrolo[2,1-c][1,4]benzoxazepine hydrochloride]", "values": [{"measurement": "Analgesic PQW, % Inhibition of Writhing", "setting": "[1]; 20 mg/kg, s.c., hydrochloride", "value": "24% and 35%"}]}, {"smiles": "C[C@H](CS)C(=O)N1CCC[C@H]1C(=O)O", "note": "[captopril, reference compound]", "values": [{"measurement": "Decrease in Blood Pressure", "setting": "[2]; 10 mg/kg p.o., reference compound", "value": 33, "unit": "mmHg"}]}, {"smiles": "CCC(=O)O[C@](Cc1ccccc1)(c1ccccc1)[C@H](C)CN(C)C", "note": "[propoxyphene, reference compound]", "values": [{"measurement": "Analgesic PQW, % Inhibition of Writhing", "setting": "[1]; 3.9 mg/kg s.c., reference compound", "value": 50, "unit": "%"}]}, {"smiles": "O=C(O)C(=O)O.c1ccc(CN2CCC(C3Oc4ccccc4C(c4ccccc4)n4cccc43)CC2)cc1", "note": "(centres unmarked) [11-(1-Benzyl-4-piperidinyl)-5-phenyl-5H,11H-pyrrolo[2,1-c][1,4]benzoxazepine oxalate]", "values": [{"measurement": "Analgesic PQW, % Inhibition of Writhing", "setting": "[1]; 20 mg/kg, s.c.", "value": 34, "unit": "%"}, {"measurement": "Decrease in Blood Pressure", "setting": "[2]; 3 mg/kg, p.o.", "value": 44, "unit": "mmHg"}]}]}
